In patent publication US10570151B2, “Biologically active molecules, conjugates thereof, and therapeutic uses” (priority 2013, dated 2020):
Read-outs that look alike come from different tables or passages of the source.

Key:
Assay type in all cases: cell-based
PC3 cells = test: Anti-proliferation activity of unconjugated compounds in PC3; details: Homo sapiens, PC-3; PC3, unconjugated (Table 2, FIG. 8)
Experimental: (§1) Cells were seeded in PDL-coated 96 well plates at 375 (MMT/hEGFRvIII), 1500 (U251/hEGFRvIII), 2000 (HEK293/hEGFRvIII), or 3000 (C4-2, PC3/hSTEAP1, T47D, and U87-MG) cells per well in complete growth media and grown overnight. For cell viability curves, serially diluted conjugates or free representative payloads were added to the cells at final concentrations ranging from 500 nM to 1 pM and incubated for 3 days. To measure viability in MMT/hEGFRvIII, U251/hEGFRvIII, HEK293/hEGFRvIII, C4-2, PC3/hSTEAP1, and U87-MG, cells were incubated with CCK8 (Dojindo) for the final 1-3 hours and the absorbance at 450 nm (OD450) was determined on a Flexstation3 (Molecular Devices). To measure viability in T47D, cells were incubated on ice for 30 min in 4% formaldehye+3 ug/ml Hoechst. Images of Hoechst stained nuclei were acquired on the ImageXpress Micro XL (Molecular Devices) and nuclear counts were determined with the Columbus analysis software (PerkinElmer). Background OD450 levels (CCK8) or nuclear counts from digitonin ([…]) treated cells were subtracted from all wells and viability is expressed as a percentage of the untreated controls. IC50 values were determined from a four-parameter logistic equation over a 10-point response curve (GraphPad Prism). All curves and IC50 values are corrected for payload equivalents.
(§2) In yet another set of experiments, compounds 6, 9, 33, and 35 were assayed in HEK293, U251, C4-2, PC3, and MMT for anti-proliferation activity (FIG. 8). The trend in potency follows 9>33>35>6 and is consistent for the 5 cell lines assayed.

U87MG cells = test: Anti-proliferation activity of unconjugated compounds in U87MG; details: Homo sapiens, U-87 MG, background correction with digitonin not performed (FIG. 7)
Experimental: as §1
(§3) In a separate set of experiments, compound 6, along with amino analogs 27, 29, and 31 were assayed in HEK293 and U87MG for anti-proliferation activity (FIG. 7). […] (For these experiments, background correction with digitonin was not performed).

U251 cells = test: Anti-proliferation activity of unconjugated compounds in U251; details: Homo sapiens, U-251; U251, unconjugated (Table 2, FIG. 8)
Experimental: as §1, §2

MMT cells = test: Anti-proliferation activity of unconjugated compounds in MMT; details: unconjugated (Table 2, FIG. 8)
Experimental: as §1, §2

HEK293 cells = test: Anti-proliferation activity of unconjugated compounds in HEK293; details: Homo sapiens
Experimental: as §1, §3, §2

[1] = system: C4-2 cells (prostate cancer line); test: In vitro cytotoxicity (cell viability, CCK8) in C4-2 cells; details: C4-2, unconjugated (Table 2, FIG. 8)
Experimental: as §1

[2] = HEK293, unconjugated (Table 2, FIG. 8), read-out: IC50 (nM) HEK293
[3] = HEK293, unconjugated, background correction with digitonin not performed (FIG. 7), read-out: IC50

Row | SMILES | IC50 (PC3 cells) | IC50 (U87MG cells) | IC50 (U251 cells) | IC50 (MMT cells) | IC50 (HEK293 cells; [2]) | IC50 (HEK293 cells; [3]) | IC50 [1]
1 | CNCCC(=O)N(C)[C@@H](C)C(=O)O[C@H]1CC(=O)N(C)c2cc(cc(OC)c2Cl)C/C(C)=C/C=C/[C@@H](OC)[C@@]2(O)C[C@H](OC(=O)N2)[C@@H](C)[C@@H]2O[C@@]12C [Compound 6] | 250 nM | > 0.03 µM | 150 nM | 250 nM | 200 nM | > 30 nM | 200 nM
2 | COc1cc2cc(c1Cl)N(C)C(=O)C[C@H](OC(=O)[C@H](C)N(C)C(=O)CCSSC)[C@]1(C)O[C@H]1[C@H](C)[C@@H]1C[C@@](O)(NC(=O)O1)[C@H](OC)/C=C/C=C(\C)C2 [Compound 9, Maytansin-3-N-methyl-L-(S)-alanine-propanamidyl-3-methyldisulfide] | 0.4 nM | – | 0.4 nM | 0.3 nM | 0.2 nM | – | 1.5 nM
3 | COc1cc2cc(c1Cl)N(C)C(=O)C[C@H](OC(=O)[C@H](C)N(C)C(=O)CCN)[C@]1(C)O[C@H]1[C@H](C)[C@@H]1C[C@@](O)(NC(=O)O1)[C@H](OC)/C=C/C=C(\C)C2 [Compound 27, Maytansin-3-N-methyl-L-(S)-alanine-β-alanine] | – | > 0.03 µM | – | – | – | > 30 nM | –
4 | COc1cc2cc(c1Cl)N(C)C(=O)C[C@H](OC(=O)[C@H](C)N(C)C(=O)CCCN)[C@]1(C)O[C@H]1[C@H](C)[C@@H]1C[C@@](O)(NC(=O)O1)[C@H](OC)/C=C/C=C(\C)C2 [Compound 29, Maytansin-3-N-methyl-L-(S)-alanine-γ-aminobutyramide] | – | > 0.03 µM | – | – | – | > 30 nM | –
5 | CNCCCC(=O)N(C)[C@@H](C)C(=O)O[C@H]1CC(=O)N(C)c2cc(cc(OC)c2Cl)C/C(C)=C/C=C/[C@@H](OC)[C@@]2(O)C[C@H](OC(=O)N2)[C@@H](C)[C@@H]2O[C@@]12C [Compound 31, Maytansin-3-N-methyl-L-(8)-alanine-N-Me-γ-aminobutyramide] | – | > 0.03 µM | – | – | – | > 30 nM | –
6 | COc1cc2cc(c1Cl)N(C)C(=O)C[C@H](OC(=O)[C@H](C)N(C)C(=O)c1ccc3c(c1)CCNC3)[C@]1(C)O[C@H]1[C@H](C)[C@@H]1C[C@@](O)(NC(=O)O1)[C@H](OC)/C=C/C=C(\C)C2 [Compound 33, Maytansin-3-N-methyl-L-N-alanine-N-carboxy-6-(1,2,3,4-tetrahydroisoquinoline)] | 30 nM | – | 15 nM | 20 nM | 20 nM | – | 20 nM
7 | COc1cc2cc(c1Cl)N(C)C(=O)C[C@H](OC(=O)[C@H](C)N(C)C(=O)C1CCNCC1)[C@]1(C)O[C@H]1[C@H](C)[C@@H]1C[C@@](O)(NC(=O)O1)[C@H](OC)/C=C/C=C(\C)C2 [Compound 35, Maytansin-3-N-methyl-L-(S)-alanine-N-carboxy-4-piperidine] | 65 nM | – | 25 nM | 60 nM | 50 nM | – | 55 nM
